Laboratory results reported in paper PMC6466617 (The AAPS journal, 2019).

Target: T1, monocarboxylate transporter 1 (MCT1) (Mus musculus, UniProt P53986)
T1 sequence (P53986 1-493): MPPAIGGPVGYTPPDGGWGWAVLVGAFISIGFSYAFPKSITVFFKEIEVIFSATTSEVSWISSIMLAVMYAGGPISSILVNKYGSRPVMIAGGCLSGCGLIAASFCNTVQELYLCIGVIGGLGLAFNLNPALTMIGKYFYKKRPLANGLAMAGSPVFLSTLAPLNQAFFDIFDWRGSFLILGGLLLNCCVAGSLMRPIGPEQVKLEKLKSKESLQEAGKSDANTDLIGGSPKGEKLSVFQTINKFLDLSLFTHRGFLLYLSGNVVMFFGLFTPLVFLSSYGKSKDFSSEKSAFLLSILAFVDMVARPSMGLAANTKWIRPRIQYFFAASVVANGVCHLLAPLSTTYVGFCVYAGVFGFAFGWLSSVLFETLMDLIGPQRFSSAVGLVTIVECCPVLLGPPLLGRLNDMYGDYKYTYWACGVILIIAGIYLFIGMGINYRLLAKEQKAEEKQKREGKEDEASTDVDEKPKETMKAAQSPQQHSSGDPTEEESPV
Assay: inhibition of [3H]-L-lactate uptake in 4T1 cells at […], pH […], with washout
Format: cell-based
Conditions: 4T1, read-out: % inhibition at 200 nM

Cc1[nH]nc(C(F)(F)F)c1Cc1sc2c(c1C(=O)N1C[C@](C)(O)CO1)c(=O)n(C)c(=O)n2C(C)C [AZD3965]
inhibition at 0.2 µM: 83.5%
